Test results reported in patent US4604383A, “Pyrrolidin-2-ones and medicaments containing them” (Societe Anonyme Styled: SANOFI, priority 1983, dated 1986).
Read-outs that look alike come from different tables or passages of the source.

Key:
[1] = Potentiation of narcosis with pentobarbital (loss of righting reflex); format: in vivo, mouse (CD1 Charles Rivers mice); conditions: mouse, products at 100 mg/kg p.os., 60 min before pentobarbital 20 mg/kg i.p.
Description: For the purpose of evaluating the hypnogenic power of the products, their capacity to potentiate the effects of a subnarcotic dose of pentabarbital in the mouse was studied. The batches were constituted by 10 CD1 Charles Rivers mice, of weight comprised between 20 and 24 g.
The pentobarbital (20 mg/kg, i.p.) was administered 60 minutes after administration of the products. The drowsiness criterion taken was the loss of the righting reflex.

[2] = Antagonism of convulsions and of mortality caused by bicucullin; format: in vivo, mouse (CD Charles Rivers mice)
Description: (§1) The anticonvulsant effect of the products in the mouse was evaluated on a model of convulsions caused by electric shock, and on 2 models of convulsions induced by chemical agents: bicuculline and 3-mercaptopropionic acid.
The batches were constituted by 10 CD Charles Rivers mice of weights comprised between 20 and 22 g. The products were administered orally, 60 minutes before the bicucullin (0.8 mg/kg, i.v.).

[3] = Acute toxicity, determination of the lethal dose in the mouse; conditions: in vivo, po, read-out: Percent toxicity (animals which die in 72 hours)
Description: The toxicity of the products according to the invention was studied: the products were administered orally, to batches of 5 CD Charles Rivers female mice, of weights comprised between 20 and 24 g. The toxicity was noted during the 72 hours which followed the administration of the products.
The results expressed as a percentage of animals which die in the 72 hours following the oral administration of the products, are noted in the preceding table.

[4] = Effect on spontaneous motility (Boissier and Simon activity test, actimetric cages); format: in vivo, mouse (CD1 Charles Rivers female mice); conditions: mouse; for Locomotor activity, score percent/controls: 100 mg/kg p.os., 45 min after administration, 10 min recording, * P <= 0.05, ** P <= 0.01; for Effect on spontaneous motility (in words): oral dose of 100 mg/kg
Description: The spontaneous motility of the animals was measured by means of the activity test developed by Boissier and Simon, Arch. Int. Pharmacocyn., 1965, 158, 212-221. The equipment is composed of actimetric cages, type Apelab (26×21.5×10 cm), traversed by two light rays which fall on a photoelectric cell. The batches were constituted by CD1 Charles Rivers female mice, of weight comprised between 20 and 24 g. The animals were placed individually in cages 45 minutes after oral administration of the products at the dose of 100 mg/kg. Each traversal by a light beam was counted by an individual counter. The scores corresponding to the movements of the animals were recorded for 10 minutes, and compared with the scores taken on batches of control animals, treated only with the vehicle (5% gum arabic).

[5] = Antagonism to the convulsions caused by 3-mercaptopropionic acid; format: in vivo, mouse (CD Charles Rivers mice); conditions: mouse, oral, 60 min before 3-mercaptopropionic acid 60 mg/kg s.c.; probit method, confidence limits in parentheses, p <= 0.05; read-out: Median effective dose (ED50) of antagonism to convulsions caused by 3-mercaptopropionic acid
Description: as §1
The batches were constituted by 10 CD Charles Rivers mice of weights comprised between 20 and 22 g. The products were administered orally 60 minutes before the 3-mercaptopropionic acid (60 mg/kg s.c.).

[6] = Antagonism of the convulsions induced by electric shock; format: in vivo, mouse (CD1 Charles Rivers mice); conditions: mouse, oral, 60 min before electroshock; probit method, confidence limits in parentheses, p <= 0.05; read-out: Median effective dose (ED50) of electric shock antagonism
Description: as §1
The test was slightly modified from that of Swinyard et al., J. Pharm. Exp. Ther., 1952, 106, 319-330 and Asami et al. Arzneim. Forsch., 1974, 24 (1), 1563-1568. The equipment was composed of a Racia shock generator provided with two occular electrodes delivering a current of 60 volts for 0.3 seconds. The batches were constituted by 10 CD1 Charles Rivers mice of weight comprised between 20 and 24 g. The products were administered orally, 60 minutes before the electroshock.

[7] = Mus musculus, po, read-out: Median effective dose (ED50) of the antagonism to the effects of bicucullin: Mortality
[8] = mouse, oral, 60 min before bicucullin 0.8 mg/kg i.v., probit method, confidence limits in parentheses, p < 0.05, read-out: Median effective dose (ED50) of the antagonism to the effects of bicucullin: Tonic convulsions

Structure (SMILES)	Potentiation of pentobarbital, percent of animals in narcosis [1]	ED50 [2, 7]	ED50 [2, 8]	mortality at 72 h ([3]; 250 mg/kg p.os.)	mortality at 72 h ([3]; 500 mg/kg p.os.)	mortality at 72 h ([3]; 1000 mg/kg p.os.)	Locomotor activity, score percent/controls [4]	Effect on spontaneous motility (in words) [4]	mortality at 72 h ([3]; 250 mg/kg)	mortality at 72 h ([3]; 500 mg/kg)	mortality at 72 h ([3]; 1000 mg/kg)	ED50 [5]	ED50 [6]
CCC1(C)CC(Cc2ccccc2F)NC1=O (centres unmarked) [SR 42001, 3-ethyl-5-[(2-fluoro-phenyl)-methyl]-3-methyl 2-pyrrolidinone]	20%	62 mg/kg	83 mg/kg	0%	0%	20%							
C[C@@H]1C[C@@H](Cc2cccs2)NC1=O (relative stereo) [SR 42008, 3-methyl-5-(2-thienyl-methyl)-2-pyrrolidinone]							-52%	sedative activity characterized by a considerable reduction in the motility	0%	0%	0%		
CC1CC(Cc2ccc(F)cc2)NC1=O (centres unmarked) [SR 41882, 5[(4-fluoro-phenyl)-methyl]-3-methyl-2-pyrrolidinone]	20%			0%	0%	100%						41 mg/kg	
C[Si](C)(C)C1CC(Cc2ccccc2)NC1=O (centres unmarked) [SR 42134]				0%	0%	0%							
COc1ccc(CC2CC(C)(C)C(=O)N2)cc1OC (centres unmarked) [SR 41677]	30%			0%	0%								
CC1CC(Cc2cccc(Cl)c2)NC1=O (centres unmarked) [SR 42717]		59 mg/kg	~100 mg/kg	0%	0%	100%							41 mg/kg
CC1CC(Cc2c(F)cccc2Cl)NC1=O (centres unmarked) [SR 42004]	30%	> 100 mg/kg	~100 mg/kg	0%	0%	0%						27 mg/kg	34 mg/kg
CC1CC(Cc2ccccc2)NC1=O (centres unmarked) [SR 42010]				0%								44 mg/kg	105 mg/kg
Cc1ccc(CC2CC(C)(C)C(=O)N2)cc1 (centres unmarked) [SR 42003]				0%	0%	0%							
CC1(C)CC(Cc2ccc(Cl)cc2Cl)NC1=O (centres unmarked) [SR 42508]		73 mg/kg	~100 mg/kg	0%	0%	0%							50 mg/kg
CC1(C)CC(Cc2ccccc2Cl)NC1=O (centres unmarked) [SR 41880]	40%			0%	0%	20%							
C[C@H]1C[C@@H](Cc2cccs2)NC1=O (relative stereo) [SR 42009, 3-methyl-5-(2-thienyl-methyl)-2-pyrrolidinone]							-23%	sedative activity characterized by a considerable reduction in the motility	0%	0%	40%		
CCCCC1([Si](C)(C)C)CC(Cc2ccccc2)NC1=O (centres unmarked) [SR 42133]				0%	0%	0%							
COc1ccc(CC2CC(c3ccccc3)C(=O)N2)cc1OC (centres unmarked) [SR 41773]				0%	0%								
CC1CC(Cc2cccc(C(F)(F)F)c2)NC1=O (centres unmarked) [SR 42401]		72 mg/kg	62 mg/kg	0%	0%								39 mg/kg
CC1CC(Cc2ccc(Cl)cc2)NC1=O (centres unmarked) [SR 42354]		66 mg/kg	63 mg/kg	0%	0%							40 mg/kg	34 mg/kg
CC(C)C1CC(Cc2ccc(Cl)cc2)NC1=O (centres unmarked) [SR 42726]				0%	0%	20%							72 mg/kg
CC1(C)CC(Cc2cccc(C(F)(F)F)c2)NC1=O (centres unmarked) [SR 42725]		66 mg/kg	~100 mg/kg	0%	0%	0%							34 mg/kg
